Format in all cases: biochemical, Microbacterium sp. 3H14
Assay [1] has as its system MPOx.
Assay [2] addresses MPOx. The source holds these as a separate data set.
Assay [3] deals with MPOx. This is another data set of the same source.

Read-outs that look alike come from different tables or passages of the source.

Usually Km stands for the substrate concentration at which the rate is half of its maximum. As a reminder, the Ki is the dissociation constant of the complex between target and ligand, obtained from inhibition or displacement. A lower Ki goes with a stronger hold on the target.

On to `O=C(CCc1ccc(O)c(O)c1)c1c(O)cc(O)c([C@@H]2O[C@H](CO)[C@@H](O)[C@H](O)[C@H]2O)c1O` [Aspalathin], for which the Km in assay [1] came to 85 ± 14 µM. The molecule also yielded a Ki in assay [2] of 300 ± 50 µM.
For the molecule `OC[C@H]1OC(O)[C@H](O)[C@@H](O)[C@@H]1O` (stereo partly drawn) [D-glucose], the Km in assay [3] was 660 ± 30 µM.
`OC1OC[C@@H](O)[C@H](O)[C@H]1O` (stereo partly drawn) [D-xylose]: the Km in assay [3] was 19000 ± 1000 µM.
For the molecule `O=C(CCc1ccc(O)cc1)c1c(O)cc(O)cc1O[C@@H]1O[C@H](CO)[C@@H](O)[C@H](O)[C@H]1O` [Phlorizin], the Km in assay [1] turned out to be 57 ± 6 µM. For the same molecule, the inhibition constant (Ki) in assay [2] amounted to 480 ± 50 µM.

For the origin of these results see article PMC11673046, “Characterization of a Pyranose Oxidase/C-Glycoside Oxidase from Microbacterium sp. 3H14, Belonging to the Unexplored Clade II of Actinobacterial POx/CGOx” (Biomolecules, 2024).
